From PubChem BioAssay AID1963843 (Molecular Pharmacology Branch, DTP, NCI, 2024)
Several values for one entry are separate records, joined by “and”; a condition that tells them apart may be missing. Identical values can stand only once.

System: 616215-338-R-J1-PDC complex spheroid viability
Experiment: Anticancer human tumor 616215-338-R-J1-PDC patient-derived colon adenocarcinoma cell line growth inhibition [POLQ]
Settings: for viability, T/C: stronger effect = lower value
Experimental: Multicellular complex tumor spheroid response to Polymerase (POL) inhibitors (novobiocin, ART-558, RP6685) in combination with a variety of drugs and investigational agents in selected tumor cell lines
The POL inhibitors (novobiocin, ART-558, and RP6685) were evaluated both individually and in combination with standard of care and investigational anticancer small molecules within a complex spheroid model of solid tumors. . Complex spheroids include a stromal component modeled by human endothelial cells (HUVEC) and fibroblasts modeled by human mesenchymal stem cells (MSCs). The concentration ranges selected for each drug and investigational agent were based upon clinically achievable concentrations if the clinical Cmax of the agent was known.
Compounds. The drugs and investigational agents: novobiocin (NSC847541), ART-558 (NSC835418), RP-6685 (NSC848927), peposertib (NSC802822), ceralasertib (NSC780249), elimusertib (NSC800525), camonsertib (NSC841442), AZD-1390 (NSC803789), olaparib (NSC753686), talazoparib (NSC767125), rucaparib (NSC756644), sotorasib (NSC818433), MRTX-1133 (NSC836407), SN-38 (NSC673596), topotecan (NSC609699), epotoside (NSC141540), doxorubicin (NSC123127), gemcitabine (NSC613327), 5-fluorouracil (NSC19893), paclitaxel (NSC125973), vemurafenib (NSC761431), MSA-2 (NSC828583), SN-011 (NSC837082), adavosertib (NSC754352), prexasertib (NSC758257), carboplatin (NSC241240) and oxaliplatin (NSC266046), were obtained from the National Cancer Institute (NCI) Developmental Therapeutics Program Chemical Repository (21). The FDA-approved anticancer drug set is available from the Developmental Therapeutics Program at https://dtp.cancer.gov/organization/dscb/obtaining/. […] The stock solutions were prepared in dimethyl sulfoxide (DMSO, Sigma-Aldrich, St. Louis, MO, cat. D2650), except for the platinum compounds which were prepared in saline (Quality Biological, Gaithersburg, MD, cat. 114-055-101), at 800-fold the tested concentration and stored at -70 degrees C prior to their use. All drugs and investigational agents were tested over a range starting from a high concentration at or near the clinical Cmax and decreasing in half-log increments. If the clinical Cmax for an agent had not been determined, the highest concentration tested was 10 microM, except for SN-38, which was tested at a high concentration of 1 microM.
Cell Culture. All cells were maintained in an incubator at 37 degrees C and 5% CO2 with 95% humidity. The PDC lines were cultured according to standard operating procedures established by the NCI PDMR (https://pdmr.cancer.gov). Table 3 of the manuscript, lists the cell lines along with the number of the three cell types plated to form the mct-spheroids and media for tumor cell growth. After thawing, all PDC lines, except 997537-175-T-J1-PDC and 415267-285-R-J2-PDC, were cultured in Matrigel-coated flasks prepared with a working solution of 1X Ham's F-12 nutrient mix, without supplementation (Thermo Fisher Scientific, cat. 11765054), 100 U/mL penicillin-streptomycin (Thermo Fisher Scientific, cat. 15140122), and 2.5% Matrigel (Corning Inc., Corning, NY, cat. 354248) for the first three passages. The two PDC lines 997537-175-T-J1-PDC and 415267-285-R-J2-PDC were cultured on uncoated flasks. The 857933-349-R-J2-PDC line was cultured in 6C/Colon 1B media containing advanced DMEM/F-12 (Thermo Fisher Scientific, cat. 12634028), 10 mM HEPES (Thermo Fisher Scientific, cat. 15630080), 1X GlutaMAX supplement (Thermo Fisher Scientific, cat. 35050061), 0.1 mg/mL primocin (InvivoGen, San Diego, CA, cat. ant-pm-2), 10% defined fetal bovine serum, heat inactivated (HyClone Laboratories Inc., Logan, UT, cat. SH30070.03HI), 50% L-WRN conditioned media (ATCC, cat. CRL-3276), 1.25 mM N-Acetyl-L-cysteine (Sigma-Aldrich, cat. A9165), 10 mM nicotinamide (Sigma-Aldrich, cat. N0636), 1X B-27 supplement (Thermo Fisher Scientific, cat. 17504044), 1X N-2 supplement (Thermo Fisher Scientific, cat. […]
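Further: spheroids exposed to compounds for one week before readout.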
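Wherever viability, T/C is given: percent viability relative to DMSO vehicle wells taken as 100%.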

COc1cc(C2c3cc4c(cc3C(OC3OC5COC(C)OC5C(O)C3O)C3COC(=O)C23)OCO4)cc(OC)c1O (stereo not given) + Nc1ccc(C#CCN(C(=O)Cc2ncc(C(F)(F)F)cc2C(F)(F)F)c2ccc(F)cc2)nn1
IC50 (curve of first compound, second compound 0.0316 µM): 327 nM | IC50 (curve of first compound, second compound 0.1 µM): 812 nM | IC50 (curve of first compound, second compound 0.316 µM): 732 nM | IC50 (curve of first compound, second compound 1 µM): 489 nM | IC50 (curve of first compound, second compound 3.16 µM): 314 nM | IC50 (curve of first compound, second compound 10 µM): 268 nM | viability, T/C (second compound 0.0316 µM, first compound 0.0316 µM): 106% | viability, T/C (second compound 0.0316 µM, first compound 0.1 µM): 83.9% | viability, T/C (second compound 0.0316 µM, first compound 0.316 µM): 46.2% | viability, T/C (second compound 0.0316 µM, first compound 1 µM): 45.8% | viability, T/C (second compound 0.0316 µM, first compound 3.16 µM): 41.9% | viability, T/C (second compound 0.0316 µM, first compound 10 µM): 24.9% | viability, T/C (second compound 0.1 µM, first compound 0.0316 µM): 107% | viability, T/C (second compound 0.1 µM, first compound 0.1 µM): 92.4% | viability, T/C (second compound 0.1 µM, first compound 0.316 µM): 57.6% | viability, T/C (second compound 0.1 µM, first compound 1 µM): 51.3% | viability, T/C (second compound 0.1 µM, first compound 3.16 µM): 36.4% | viability, T/C (second compound 0.1 µM, first compound 10 µM): 27.7% | viability, T/C (second compound 0.316 µM, first compound 0.0316 µM): 108% | viability, T/C (second compound 0.316 µM, first compound 0.1 µM): 87.8% | viability, T/C (second compound 0.316 µM, first compound 0.316 µM): 65.4% | viability, T/C (second compound 0.316 µM, first compound 1 µM): 42.3% | viability, T/C (second compound 0.316 µM, first compound 3.16 µM): 35.9% | viability, T/C (second compound 0.316 µM, first compound 10 µM): 26.4% | viability, T/C (second compound 1 µM, first compound 0.0316 µM): 98.4% | viability, T/C (second compound 1 µM, first compound 0.1 µM): 86.3% | viability, T/C (second compound 1 µM, first compound 0.316 µM): 56.5% | viability, T/C (second compound 1 µM, first compound 1 µM): 37% | viability, T/C (second compound 1 µM, first compound 3.16 µM): 36% | viability, T/C (second compound 1 µM, first compound 10 µM): 24.8% | viability, T/C (second compound 3.16 µM, first compound 0.0316 µM): 94.7% | viability, T/C (second compound 3.16 µM, first compound 0.1 µM): 67.5% | viability, T/C (second compound 3.16 µM, first compound 0.316 µM): 48.6% | viability, T/C (second compound 3.16 µM, first compound 1 µM): 37.9% | viability, T/C (second compound 3.16 µM, first compound 3.16 µM): 38.3% | viability, T/C (second compound 3.16 µM, first compound 10 µM): 24.4% | viability, T/C (second compound 10 µM, first compound 0.0316 µM): 83.4% | viability, T/C (second compound 10 µM, first compound 0.1 µM): 64% | viability, T/C (second compound 10 µM, first compound 0.316 µM): 49.8% | viability, T/C (second compound 10 µM, first compound 1 µM): 34.3% | viability, T/C (second compound 10 µM, first compound 3.16 µM): 32.3% | viability, T/C (second compound 10 µM, first compound 10 µM): 30.9%

CC1COCCN1c1cc(-c2ccnn2C)c2ccnc(-c3ccn[nH]3)c2n1 (stereo not given)
viability, T/C (compound 0.0316 µM): 95.3% and 98.7% and 94% | viability, T/C (compound 0.1 µM): 102% and 90.3% and 66% | viability, T/C (compound 0.316 µM): 73.7% and 70.5% and 39.4% | viability, T/C (compound 1 µM): 60.4% and 47.1% and 31.4% | viability, T/C (compound 3.16 µM): 50% and 27.1% and 28.4% | viability, T/C (compound 10 µM): 44.6% and 40.1% and 21.7%

COc1cc2cc(C(=O)CCC(=O)O)sc2cc1OC
viability, T/C (compound 0.0316 µM): 99% and 105% and 100% | viability, T/C (compound 0.1 µM): 97.3% and 102% and 92.3% | viability, T/C (compound 0.316 µM): 109% and 107% and 92.4% | viability, T/C (compound 1 µM): 95.5% and 105% and 98% | viability, T/C (compound 3.16 µM): 105% and 104% and 93.1% | viability, T/C (compound 10 µM): 99.8% and 105% and 109% | IC50 (curve of compound): > 10000 nM
